The values below come from US12247973B2, “Plasma membrane citrate transporter for use in the diagnosis and treatment of cancer” (Universitätsklinikum Regensburg, priority 2014, dated 2025).

Assay [1] concerns human prostate cancer PC-3M cells. Kind of assay: Survival of PC-3M cells under stress conditions, MTT assay. The format is cell-based. Particulars: serum-free media with 0.5 g/L glucose. As to the method:
FIG. 16. Metastatic human prostate cancer PC-3M cells were grown in RPMI media supplemented with 0.5 g/L glucose and glutamine. Their survival rate was measured after 48 h and 72 h using an MTT assay. The control depicts survival of the cells with no extracellular citrate or glutamate.
4. Effect of gluconate on the survival of human prostate cancer PC-3M cells (16)

Assay [2] relates to PC-3M cells. Nature of the assay: Flow cytometry-based cell division (cell cycle) study. More on the design: species or system human. The conditions noted are these: PC-3M cells cultured with supplemented citrate, normoxic. As to the method: (§1) FIG. 3. Glycolytic activity and amino acid release. (A) Amount of glucose consumed and lactate released by PC-3M cells grown for 24 h with or without 200 μM citrate. (**P<0.01; n=5). (B) Concentrations of glycine, alanine and proline in the supernatants of PC-3M cells grown for 72 h with or without 200 μM citrate. (*P<0.05, **P<0.01; n=5). (C) Influence of extracellular citrate on the intracellular ratio of 13C-labeled to unlabelled free amino acids. PC-3M cells were incubated for 72h in media supplemented with [U-^13C]glucose with or without 200 μM unlabelled citrate, the ratio of ^13C incorporation into amino acids is shown. (*P<0.05, ***P<0.005; n=5). (D) Cell division in the presence or absence of extracellular citrate under normoxic conditions determined by flow cytometry. (*P<0.05, **P<0.01; n=6).
An increase in the synthesis of amino acids in the presence of extracellular citrate prompted cell division testing. […] Therefore, metabolic changes induced by extracellular citrate affect metabolism to an extent that impacts cellular processes such as cell division.
Studies were performed as before^28. […] ROS production was detected with dihydrorhodamine 123 (Molecular Probes, Darmstadt, Germany). […] At least 10,000 live cells were measured per sample. Dead cells were detected using the Aqua Live/Dead cell kit (Molecular Probes).
On the technique in general: Flow cytometry measures light scatter and fluorescence of single cells or particles in a stream.

For another assay, the system named is normal PNT2-C2 cells. Nature of the assay: ROS synthesis by flow cytometry in PNT2-C2 cells. The format is cell-based, human. The conditions noted are these: extracellular citrate. As to the method: FIG. 2. Impact of extracellular citrate on Krebs cycle activity. PC-3M cells were incubated for 72 h with 25 mM [U-13C]glucose with or without the addition of 200 μM unlabelled citrate. (A) Differences in the ratio of uniform ^13C incorporation into fully labelled Krebs cycle intermediates. (*P<0.05, ***P<0.005; n=5). (B) Differences in ROS synthesis determined by flow cytometry for PC-3M (left) and PNT2-C2 (right) cells. Cells were incubated in media containing FCS, dialysed FCS+200 μM citrate, or dialysed serum only. Shown are geometric means±SD. (*P<0.05; n=6-9). […] Changes in mCiC in mitochondrial protein derived from PNT2-C2 cells was also determined under normoxic conditions (right). […]
Changes in Krebs cycle activity were also determined by measuring the absolute amounts determined as a normalized response of the studied substrates (unlabelled and total ^13C depicting all substrates with any number of labelled carbons) in the presence or absence of unlabelled extracellular citrate (FIG. 7). […] Using flow cytometry the inventors also determined that ROS levels in PC-3M cells grown with extracellular citrate were decreases by about 20%, compared to cells grown in citrate-depleted dialysed serum (FIG. 2B); use of normal non-dialysed serum also reduces ROS levels. […]
Studies were performed as before^28. […] ROS production was detected with dihydrorhodamine 123 (Molecular Probes, Darmstadt, Germany). […]

Assay [3] concerns PC-3M cells. Kind of assay: Glucose uptake and lactate release in media of PC-3M cells. The format is cell-based, human. The conditions noted are these: 200 μM citrate, 24 h. As to the method: as §1
To assess glycolysis the inventors measured (unlabelled) glucose uptake and lactate release in the media from PC-3M cells incubated±200 μM citrate for 24 h. […] This effect is most likely related to increased conversion of pyruvate to lactate because of decreased mitochondrial citrate synthesis.
Metabolites were extracted with 80% methanol and measured by HPLC-ESI-MS/MS on an AB SCI EX (Framingham, MA, USA) Q TRAP™ 4000 system. […] Lactate and glucose in the media were measured as previously described^27.

For another assay, the target named is T1, pmCiC (Homo sapiens, UniProt P53007).
T1 construct: expressed in transfected cells
Kind of assay: pmCiC expressed in oocytes, two electrodes voltage clamp, citrate-induced current. The assay is classed as cell-based. As to the method:
FIG. 13. Oocytes were injected with either pmCiC cDNA (A) or water (B).
1. pmCiC expression in oocytes—two electrodes voltage clamp (FIG. 13)
We have expressed pmCiC in oocytes and induced citrate inward current by introducing citrate into extracellular media. […] This reduction was irreversible, as subsequent application of citrate after gluconate removal from the media was not able to restore the primary response.

The test system of assay [4] is human prostate cancer PC-3M cells. Nature of the assay: Patch clamp, citrate-induced current in PC-3M cells. The format is cell-based. As to the method: (§2) FIG. 14. Patch clamp recordings were performed on PC-3M (A) and PNT2-C2 (B) cells. […] Importantly, reduction in citrate-induced current in the presence of gluconate was irreversible. […] The effect of reduced citrate-induced current was greater in the case of PC-3M cells versus PNT2-C2 cells.
(§3) 2. Patch clamp on human prostate cancer PC-3M and benign PNT2-C2 cells (FIG. 14)
(§4) Extracellular application of citrate induced inward current in both cell lines as described earlier. […] As in the case of oocytes, gluconate inhibition of citrate-induced current was irreversible. Repeated application of citrate on PC-3M cells has been previously shown not to cause any reduction in citrate current (Mycielska et al., 2005).
A general note: The patch-clamp technique gives a direct electrical read-out from membranes.

Another assay has as its system benign PNT2-C2 cells. Kind of assay: Patch clamp, citrate-induced current in PNT2-C2 cells. The format is cell-based, human. The conditions noted are these: 10 mM gluconate, 10 mM citrate. As to the method: as §2, §3, §4
A further assay deals with pmCiC mRNA. Nature of the assay: RealTime PCR, pmCiC mRNA expression in PC-3M cells. The assay is classed as cell-based, human. The conditions noted are these: media with citrate plus 5 mM gluconate vs citrate only. As to the method: (§5) FIG. 15. Metastatic human prostate cancer PC-3M cells were grown with extracellular citrate in the presence or absence of gluconate (5 mM). RealTime PCR was performed to assess changes to the mRNA expression level of pmCiC and mCiC.
(§6) 3. Effects of extracellular gluconate on pmCiC mRNA expression (FIG. 15)
(§7) We have studied the effect of gluconate in the extracellular media supplemented with citrate on the expression changes of pmCiC and mCiC as compared to the control conditions where the cells were incubated with extracellular citrate only. […] On the other hand, there was a significant mCiC mRNA increase, which would indicate increased mitochondrial activity to maintain intracellular citrate level.

The next assay relates to mCiC mRNA. Nature of the assay: RealTime PCR, mCiC mRNA expression in PC-3M cells. The format is cell-based, human. Particulars: media with citrate plus 5 mM gluconate vs citrate only. As to the method:
as §5, §6, §7

T1 sequence (P53007 with tags, fused parts or gaps limits assumed): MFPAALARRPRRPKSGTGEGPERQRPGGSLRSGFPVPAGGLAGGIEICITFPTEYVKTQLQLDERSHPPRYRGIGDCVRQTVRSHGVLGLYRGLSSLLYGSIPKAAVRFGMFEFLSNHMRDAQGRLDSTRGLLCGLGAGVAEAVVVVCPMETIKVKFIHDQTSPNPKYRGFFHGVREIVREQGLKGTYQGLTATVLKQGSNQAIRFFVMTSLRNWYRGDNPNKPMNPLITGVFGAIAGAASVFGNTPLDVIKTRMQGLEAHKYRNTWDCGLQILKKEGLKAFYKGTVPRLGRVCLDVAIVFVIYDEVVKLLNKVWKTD

Regarding `O=C(O)CC(O)(CC(=O)O)C(=O)O` [citrate], the “survival of cancer cells under stress conditions with extracellular citrate” value in [1] (200 μM citrate) is “increases survival”. Moreover, in the assay on PC-3M cells [2], the “cell cycle phase distribution” value is on record as “sharp increase in the G2/M phase”. The ROS synthesis entry in the assay with normal PNT2-C2 cells is “did not affect ROS synthesis”. Also, the “lactate production (absolute amount of lactate per media volume)” value with PC-3M cells [3] is “unaffected”.

For `O=C(O)[C@H](O)[C@@H](O)[C@H](O)[C@H](O)CO` [gluconate], the “reversibility of the reduction of citrate-induced current” value on pmCiC (citrate applied again after gluconate removal from the media) is reported as “irreversible”. Further, the “citrate-induced current in the presence of gluconate” value on pmCiC (oocytes injected with pmCiC cDNA, gluconate applied extracellularly) is “significantly decreased”; in assay [4] (PC-3M cells, 10 mM gluconate, 10 mM citrate), “decreased”; in the assay on benign PNT2-C2 cells it was “decreased”. Besides, the “reversibility of gluconate inhibition of citrate-induced current” value in assay [4] (PC-3M cells, 10 mM gluconate) is on record as “irreversible”. In [4] (repeated application), the “effect of repeated application of gluconate on citrate-induced current” value is “further citrate-induced current reduction”. In addition, in the assay with pmCiC mRNA, the “pmCiC mRNA expression” value was “significantly increased”. Moreover, the “mCiC mRNA expression” value with mCiC mRNA is recorded as “significantly increased”. Moreover, the “survival of cells in the presence of extracellular citrate and gluconate” value in [1] (200 μM citrate, 48 h and 72 h) is listed as “protective effect of extracellular citrate is abolished”. The “cell survival with gluconate in the absence of extracellular citrate” value in assay [1] (no citrate) is listed as “no effect on cell survival”.
